Measurements from PubChem BioAssay AID248 (DTP/NCI, 2004).
Inconclusive results and toxic doses are left out. Rule as the data show it: active = T/C of 150% or more; inactive = T/C below 125%. Numbered stars: 1 amine (or outer) side, 2 acyl side, 3 side chain; on linkers, the order of the positions; unused ones are H or OH. Square brackets hold non-standard residues; d marks the D form. Peptide text beside a SMILES is read from it. γGlu = O=C(O)[CH](CCC(=O)[*:2])N[*:1]; Hpg = N[CH](C(=O)O)c1ccc(O)cc1

System: L1210 leukemia ip in BDF1 mice, survival T/C
Test: NCI In Vivo Anticancer Drug Screen. Data for tumor model L1210 Leukemia (intraperitoneal) in B6D2F1 (BDF1) mice
Conditions: endpoint: mean survival time, higher = longer survival
Method in brief: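 Read-out is survival time, reported as the treated-group measurement over the vehicle-control measurement.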

[1] = dose: 100.0 mg/kg/injection, schedule: Q01DX009 (ip), vehicle: saline with Tween-80
[2] = dose: 200.0 mg/kg/injection, schedule: Q01DX009 (ip), vehicle: saline with Tween-80
[3] = dose: 100.0 mg/kg/injection, schedule: Q01DX009 (ip), vehicle: Klucel (hydroxypropylcellulose) (HPC)
[4] = dose: 200.0 mg/kg/injection, schedule: Q01DX009 (ip), vehicle: Klucel (hydroxypropylcellulose) (HPC)
[5] = dose: 400.0 mg/kg/injection, schedule: Q01DX009 (ip), vehicle: Klucel (hydroxypropylcellulose) (HPC)

Measured: T/C

CC(NC(=O)CCC(NC(=O)C(Cc1ccc(O)cc1)NC(=O)CNC(=O)C(C)NC(=O)CCC(NC(=O)C(N)c1ccc(O)cc1)C(=O)O)C(=O)O)C(=O)NCC(=O)NCC(=O)O (configuration not stated) (H-[Hpg][γGlu]AGY[γGlu]AGG-OH; configuration not given here)
inactive: dose: 100.0 mg/kg/injection, schedule: Q01DX001 (ip), vehicle: saline 97 % of control | dose: 200.0 mg/kg/injection, schedule: Q01DX001 (ip), vehicle: saline 98 % of control | dose: 400.0 mg/kg/injection, schedule: Q01DX001 (ip), vehicle: saline 97 % of control

CC(=O)Oc1ccc(/C=C/C(=O)O)cc1OC(C)=O
inactive: dose: 25.0 mg/kg/injection, schedule: Q04DX002 (ip), vehicle: saline with Tween-80 101 % of control | dose: 50.0 mg/kg/injection, schedule: Q04DX002 (ip), vehicle: saline with Tween-80 97 % of control | dose: 100.0 mg/kg/injection, schedule: Q04DX002 (ip), vehicle: saline with Tween-80 94 % of control | dose: 200.0 mg/kg/injection, schedule: Q04DX002 (ip), vehicle: saline with Tween-80 87 % of control | dose: 400.0 mg/kg/injection, schedule: Q04DX002 (ip), vehicle: saline with Tween-80 93 % of control

O=C(NNc1ccccc1)C(O)C(O)C(O)C(O)C(O)CO (configuration not stated)
inactive: dose: 100.0 mg/kg/injection, schedule: Q04DX002 (ip), vehicle: Klucel (hydroxypropylcellulose) (HPC) 98 % of control | dose: 200.0 mg/kg/injection, schedule: Q04DX002 (ip), vehicle: Klucel (hydroxypropylcellulose) (HPC) 95 % of control | dose: 400.0 mg/kg/injection, schedule: Q04DX002 (ip), vehicle: Klucel (hydroxypropylcellulose) (HPC) 91 % of control

CC(C)C(Br)C(=O)NCC(=O)NCC(=O)O (configuration not stated)
inactive: [1] 93 % of control | [2] 94 % of control | dose: 400.0 mg/kg/injection, schedule: Q01DX009 (ip), vehicle: saline with Tween-80 92 % of control

CC(C)CC(CC(C)C)NCC(C)OC(=O)c1ccc(N(C)C)cc1 (configuration not stated)
inactive: dose: 75.0 mg/kg/injection, schedule: Q01DX001 (ip), vehicle: other 101 % of control | dose: 150.0 mg/kg/injection, schedule: Q01DX001 (ip), vehicle: other 106 % of control

O=C(N/N=C/c1c[nH]c2ccccc12)C1CCCO1 (configuration not stated)
inactive: [3] 98 % of control | [4] 98 % of control | [5] 94 % of control

C=CCNc1ccc(OC)cc1
inactive: dose: 50.0 mg/kg/injection, schedule: Q01DX009 (ip), vehicle: saline with Tween-80 88 % of control | [1] 96 % of control | [2] 98 % of control

CC(C)(Br)C(=O)C(C)(C)Br
inactive: dose: 75.0 mg/kg/injection, schedule: Q01DX001 (ip), vehicle: saline 93 % of control | [3] 103 % of control | dose: 150.0 mg/kg/injection, schedule: Q01DX001 (ip), vehicle: saline 96 % of control | [4] 100 % of control | dose: 300.0 mg/kg/injection, schedule: Q01DX001 (ip), vehicle: saline 92 % of control | [5] 91 % of control

COc1cc(C)c(Cc2cnc(N)nc2N)cc1OC
inactive: dose: 100.0 mg/kg/injection, schedule: Q04DX003 (ip), vehicle: Klucel (hydroxypropylcellulose) (HPC) 97 % of control | dose: 200.0 mg/kg/injection, schedule: Q04DX003 (ip), vehicle: Klucel (hydroxypropylcellulose) (HPC) 89 % of control

CC(C)(O)C(=NCc1ccccc1)c1ccccc1
inactive: dose: 75.0 mg/kg/injection, schedule: Q04DX003 (ip), vehicle: other 97 % of control | dose: 150.0 mg/kg/injection, schedule: Q04DX003 (ip), vehicle: other 92 % of control | dose: 300.0 mg/kg/injection, schedule: Q04DX003 (ip), vehicle: other 98 % of control

CC1(C)CC[C@]2(C(=O)O)CC[C@]3(C)C(=CC[C@@H]4[C@@]5(C)CC[C@H](O)C(C)(C)[C@@H]5CC[C@]43C)[C@@H]2C1
inactive: dose: 50.0 mg/kg/injection, schedule: Q01DX009 (ip), vehicle: saline 94 % of control | dose: 100.0 mg/kg/injection, schedule: Q01DX001 (sc), vehicle: saline 103 % of control | dose: 100.0 mg/kg/injection, schedule: Q01DX009 (ip), vehicle: saline 94 % of control | dose: 100.0 mg/kg/injection, schedule: Q04DX002 (ip), vehicle: saline 97 % of control | dose: 200.0 mg/kg/injection, schedule: Q01DX001 (sc), vehicle: saline 103 % of control | dose: 200.0 mg/kg/injection, schedule: Q01DX009 (ip), vehicle: saline 97 % of control | dose: 200.0 mg/kg/injection, schedule: Q04DX002 (ip), vehicle: saline 97 % of control | dose: 400.0 mg/kg/injection, schedule: Q01DX001 (sc), vehicle: saline 103 % of control | dose: 400.0 mg/kg/injection, schedule: Q04DX002 (ip), vehicle: saline 94 % of control
